Values of other authors in US12502339B2, “Foam compositions” (The Procter & Gamble Company, priority 2021, dated 2025).

Details: in water

Structure (SMILES) | Water solubility at 20° C. (weight percent)
CCCC [Butane] | <0.01% weight percent
COC [Dimethyl ether] | 7% weight percent
[He] [Helium] | <0.01 weight percent
CC(C)C [Isobutane] | <0.01% weight percent

Further lines, results first:

Water solubility at 20° C. (weight percent) | Structure (SMILES)
0.8% weight percent | O=C=O [Carbon dioxide]
0.12 weight percent | [N-]=[N+]=O [Nitrous oxide]
